The results in this text go back to patent publication US20260015350A1, “AZAQUINAZOLINE PAN-KRAS INHIBITORS” (Mirati Therapeutics, Inc., priority 2022, published 2026).

Assay [1] addresses T1, KRas^WT (Homo sapiens, UniProt P01116).
T1 construct: Biotinylated KRas (corresponding to amino acids 1-169, produced at Accelegan Inc.); biotin (biotinylated); purchased Accelegan Inc
In words: KRas binding assay (TR-FRET tracer displacement), KRas WT. The conditions noted are these: TR-FRET tracer displacement, KRas WT. A general note: Time-resolved FRET reads energy transfer from a long-lived donor to a nearby acceptor.

Assay [2] concerns the target T2, KRas^G12C (Homo sapiens, UniProt P01116, G12C).
T2 construct: Biotinylated KRas (corresponding to amino acids 1-169, produced at Accelegan Inc.); biotin (biotinylated); purchased Accelegan Inc
Briefly: KRas binding assay (TR-FRET tracer displacement), KRas G12C. Conditions: TR-FRET tracer displacement, KRas G12C.

The target in assay [3] is T3, KRas^G12D (Homo sapiens, UniProt P01116, G12D).
T3 construct: Biotinylated KRas (corresponding to amino acids 1-169, produced at Accelegan Inc.); biotin (biotinylated); purchased Accelegan Inc
In words: KRas binding assay (TR-FRET tracer displacement), KRas G12D.

The target of assay [4] is T4, KRas^G12S (Homo sapiens, UniProt P01116, G12S).
T4 construct: Biotinylated KRas (corresponding to amino acids 1-169, produced at Accelegan Inc.); biotin (biotinylated); purchased Accelegan Inc
Briefly: KRas binding assay (TR-FRET tracer displacement), KRas G12S. The conditions noted are these: TR-FRET tracer displacement, KRas G12S.

The target of assay [5] is T5, KRas^G12V (Homo sapiens, UniProt P01116, G12V).
T5 construct: Biotinylated KRas (corresponding to amino acids 1-169, produced at Accelegan Inc.); biotin (biotinylated); purchased Accelegan Inc
Briefly: KRas binding assay (TR-FRET tracer displacement), KRas G12V.

Assay [6] concerns KRas-mediated phosphorylation of ERK in MKN1 cells. Briefly: Inhibition of KRas-mediated phosphorylation of ERK (Cisbio HTRF pERK), MKN1 cells. In kind it is cell-based. The conditions noted are these: Homo sapiens, MKN-1. Put shortly:
(§1)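 HTRF pERK read-out; 6,000 cells/well, RPMI_10% FBS, overnight 37° C./5% CO2; 4 h covered incubation at RT before reading.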

Assay [7] relates to KRas-mediated phosphorylation of ERK in PSN1 cells. Briefly: Inhibition of KRas-mediated phosphorylation of ERK (Cisbio HTRF pERK), PSN1 cells. The conditions noted are these: Homo sapiens. In kind it is cell-based. The method in brief:
as §1

Assay [8] relates to KRas-mediated phosphorylation of ERK in AsPC-1 cells. Briefly: Inhibition of KRas-mediated phosphorylation of ERK (Cisbio HTRF pERK), AsPC-1 cells. Conditions: Homo sapiens, ASPC1, AsPC-1 cells; HTRF pERK. It counts as cell-based. The method in brief: (§2)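 Cells were seeded at 6,000 per well and treated for 3 hrs with compound in a 10-dose, 3-fold series from 10 uM (0.8% final DMSO), with 0.2 uM Trametinib as Min control. Lysates made at 4° C over 40 mins were incubated 2 hrs at room temperature with d2- and Cryptate-labelled antibodies, then read by HTRF.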

In assay [9] the test system is KRas-mediated phosphorylation of ERK in H727 cells. Briefly: Inhibition of KRas-mediated phosphorylation of ERK (Cisbio HTRF pERK), H727 cells. In kind it is cell-based. The conditions noted are these: Homo sapiens, NCI-H727, H727 cells; HTRF pERK. The method in brief:
as §2

In assay [10] the test system is KRas-mediated phosphorylation of ERK in A549 cells. In words: Inhibition of KRas-mediated phosphorylation of ERK (Cisbio HTRF pERK), A549 cells. It counts as cell-based. The conditions noted are these: Homo sapiens, HTRF pERK. The method in brief: (§3)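 6,000 cells/well; cpd 10 uM top, 3-fold x10, 0.8% DMSO final; 3 hr incubation; Min ctrl Trametinib 0.2 uM; lysis 40 min 4° C shaking; d2 + Cryptate Ab mix, 2 hr RT; HTRF read.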

The test system of assay [11] is KRas-mediated phosphorylation of ERK in H460 cells. In words: Inhibition of KRas-mediated phosphorylation of ERK (Cisbio HTRF pERK), H460 cells. In kind it is cell-based. The conditions noted are these: Homo sapiens, NCI-H460, HTRF pERK. Put shortly: as §2
Assay [12] deals with KRas-mediated phosphorylation of ERK in HCT116 cells. In words: Inhibition of KRas-mediated phosphorylation of ERK (Cisbio HTRF pERK), HCT116 cells. It counts as cell-based. Conditions: Homo sapiens, HCT-116, HTRF pERK. Put shortly: as §3
The test system of assay [13] is KRas-mediated phosphorylation of ERK in H358 cells. Briefly: Inhibition of KRas-mediated phosphorylation of ERK (Cisbio HTRF pERK), H358 cells. It counts as cell-based. The conditions noted are these: Homo sapiens, NCI-H358, HTRF pERK. The method in brief: as §2

T1 sequence (P01116 1-169 isoform P01116-2): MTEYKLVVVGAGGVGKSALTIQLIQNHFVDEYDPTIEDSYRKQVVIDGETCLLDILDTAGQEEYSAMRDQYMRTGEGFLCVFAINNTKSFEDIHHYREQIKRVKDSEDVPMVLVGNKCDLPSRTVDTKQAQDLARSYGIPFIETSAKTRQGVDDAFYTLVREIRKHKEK
T3 sequence (P01116 1-169 isoform P01116-2 G12D): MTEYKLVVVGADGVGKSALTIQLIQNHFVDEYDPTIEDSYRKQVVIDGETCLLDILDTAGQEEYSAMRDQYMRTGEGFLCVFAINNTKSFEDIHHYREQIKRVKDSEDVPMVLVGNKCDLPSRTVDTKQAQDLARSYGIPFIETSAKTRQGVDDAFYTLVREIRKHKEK
T2 sequence (P01116 1-169 isoform P01116-2 G12C): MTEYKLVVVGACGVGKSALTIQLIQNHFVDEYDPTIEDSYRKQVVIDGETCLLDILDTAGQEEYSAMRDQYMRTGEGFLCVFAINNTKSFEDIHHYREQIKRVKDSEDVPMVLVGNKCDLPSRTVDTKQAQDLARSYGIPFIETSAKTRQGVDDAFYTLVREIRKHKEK
T5 sequence (P01116 1-169 isoform P01116-2 G12V): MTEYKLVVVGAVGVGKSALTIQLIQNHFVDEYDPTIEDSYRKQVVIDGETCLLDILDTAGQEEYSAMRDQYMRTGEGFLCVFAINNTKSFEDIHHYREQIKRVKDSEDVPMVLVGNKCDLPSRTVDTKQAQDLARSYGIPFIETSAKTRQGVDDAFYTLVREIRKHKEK
T4 sequence (P01116 1-169 isoform P01116-2 G12S): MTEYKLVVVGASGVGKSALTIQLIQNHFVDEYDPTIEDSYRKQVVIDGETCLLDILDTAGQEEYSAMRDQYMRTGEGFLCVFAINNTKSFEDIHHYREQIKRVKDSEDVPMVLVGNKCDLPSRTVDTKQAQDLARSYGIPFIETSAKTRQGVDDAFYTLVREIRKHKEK

As for `CCc1c(F)ccc2cc(O)cc(-c3ncc4c(N5CCC[C@@](C)(O)C5)nc(OC[C@@]56CCCN5CC(=C(F)F)C6)nc4c3F)c12` (single isomer, unassigned) [Example 918], the IC50 was < 2 nM in [1]; < 2 nM in [2]; < 2 nM in [3]; < 2 nM in assay [4]; < 2 nM in assay [5]; 1 nM in assay [6]. For the same compound, the half-inhibitory concentration (IC50) in assay [7] came out at 490 nM; in assay [8], 3 nM; in assay [9], 17 nM; in assay [10], 4 nM; in [11], 5 nM; in assay [12] it was 12 nM. In addition, in [13], half-maximal inhibition (IC50) was put at 3 nM.
On to `C[C@@H]1C[C@@H]1c1c(Cl)cc(O)cc1-c1ncc2c(N3CCCC4(CNS(=O)(=O)N4)C3)nc(OC[C@@]34CCCN3C[C@H](F)C4)nc2c1F` (stereo in doubt) [Example 929, 7-(7-(3-chloro-5-hydroxy-2-(cis-2-methylcyclopropyl)phenyl)-8-fluoro-2-(((2R,7aS)-2-fluorotetrahydro-1H-pyrrolizin-7a(5H)-yl)methoxy)pyrido[4,3-d]pyrimidin-4-yl)-2-thia-1,3,7-triazaspiro[4.5]decane 2,2-dioxide], for which the concentration for half-maximal inhibition (IC50) in assay [1] is < 2 nM; in [2], < 2 nM; in [3] it was 2 nM; in [4], < 2 nM; in assay [5], < 2 nM; in assay [6], 17 nM. Moreover, the IC50 amounted to 397 nM in assay [7]; 60 nM in assay [8]; 163 nM in assay [9]; 84 nM in assay [10]; 41 nM in assay [11]; 137 nM in [12]. In assay [13], this compound showed an IC50 of 14 nM.
Take `CCc1c(F)ccc2cc(O)cc(-c3ncc4c(N5C[C@@H]6C[C@H](C5)[C@H](O)C6)nc(OCC56CCCN5CC(=C(F)F)C6)nc4c3F)c12` (stereo partly drawn) [Example 798, (1R,5R,6R)-3-(2-((2-(difluoromethylene)tetrahydro-1H-pyrrolizin-7a(5H)-yl)methoxy)-7-(8-ethyl-7-fluoro-3-hydroxynaphthalen-1-yl)-8-fluoropyrido[4,3-d]pyrimidin-4-yl)-3-azabicyclo[3.2.1]octan-6-ol]: the IC50 in assay [1] was < 2 nM; in assay [2], < 2 nM; in [3], < 2 nM; in assay [4], < 2 nM; in [5] it was < 2 nM; in assay [6], 0.3 nM. The IC50 in [7] is 946 nM; in assay [8] it was 17 nM; in assay [9], 19 nM; in assay [10] it was 3 nM; in [11], 4 nM; in assay [12] it was 25 nM. This compound also yielded an IC50 in assay [13] of 3 nM.
With `C=C1CN2CCCC2(COc2nc(N3C[C@@H]4C[C@H](C3)[C@H](O)C4)c3cnc(-c4cc(O)cc5ccc(F)c(CC)c45)c(F)c3n2)C1` (stereo partly drawn) [Example 800, (1R,5R,6R)-3-(7-(8-ethyl-7-fluoro-3-hydroxynaphthalen-1-yl)-8-fluoro-2-((2-methylenetetrahydro-1H-pyrrolizin-7a(5H)-yl)methoxy)pyrido[4,3-d]pyrimidin-4-yl)-3-azabicyclo[3.2.1]octan-6-ol], the IC50 was < 2 nM in assay [1]; < 2 nM in assay [2]; < 2 nM in assay [3]; < 2 nM in assay [4]; < 2 nM in [5]; 0.3 nM in [6]. Further, the IC50 in [7] was 587 nM; in [8] it was 6 nM; in assay [9] it was 3 nM; in assay [10] it was 3 nM; in [11], 3 nM; in assay [12], 13 nM. In [13], this compound gave an IC50 of 1 nM.
For the compound `C=C1CN2CC(=C)CC2(COc2nc(N3CCC[C@@](C)(O)C3)c3cnc(-c4cc(O)cc5ccc(F)c(CC)c45)c(F)c3n2)C1` [Example 799, (R)-1-(2-((2,6-dimethylenetetrahydro-1H-pyrrolizin-7a(5H)-yl)methoxy)-7-(8-ethyl-7-fluoro-3-hydroxynaphthalen-1-yl)-8-fluoropyrido[4,3-d]pyrimidin-4-yl)-3-methylpiperidin-3-ol], the IC50 is < 2 nM in assay [1]; < 2 nM in assay [2]; < 2 nM in assay [3]; < 2 nM in assay [4]; < 2 nM in [5]; 0.9 nM in assay [6]. Moreover, the IC50 was determined as 988 nM in assay [7]; 7 nM in assay [8]; 20 nM in [9]; 9 nM in [10]; 8 nM in assay [11]; 30 nM in [12]. Further, 4 nM corresponded to half-maximal inhibition in assay [13] (IC50).
In the case of `CCc1c(F)ccc2cc(O)cc(-c3ncc4c(N5C[C@@H]6C[C@H](C5)[C@H](O)C6)nc(OCC56CC(F)CN5CC(F)C6)nc4c3F)c12` (stereo partly drawn) [Example 923, (1R,5R,6R)-3-(2-((2,6-difluorotetrahydro-1H-pyrrolizin-7a(5H)-yl)methoxy)-7-(8-ethyl-7-fluoro-3-hydroxynaphthalen-1-yl)-8-fluoropyrido[4,3-d]pyrimidin-4-yl)-3-azabicyclo[3.2.1]octan-6-ol], the IC50 in assay [1] is 8 nM; in assay [2], 7 nM; in [3] it was 18 nM; in [4] it was 5 nM; in assay [5], 4 nM; in assay [6], 9 nM. Further, the results for the IC50 in [7], in assay [8] and in assay [9] were > 10000 nM, 365 nM and 125 nM, respectively.
As to `CCc1c(F)ccc2cc(O)cc(-c3ncc4c(N5C[C@@H]6C[C@H](C5)[C@H](O)C6)nc(OCC56CCCN5CC(F)(F)C6)nc4c3F)c12` (stereo partly drawn) [Example 924, (1R,5R,6R)-3-(2-((2,2-difluorotetrahydro-1H-pyrrolizin-7a(5H)-yl)methoxy)-7-(8-ethyl-7-fluoro-3-hydroxynaphthalen-1-yl)-8-fluoropyrido[4,3-d]pyrimidin-4-yl)-3-azabicyclo[3.2.1]octan-6-ol], the IC50 in assay [1] came to 7 nM; in [2], 7 nM; in [3] it was 14 nM; in [4], 5 nM; in [5] it was 4 nM; in assay [6], 14 nM. For the same compound, the results for the IC50 in [7], in assay [8] and in assay [9] were > 10000 nM, 262 nM and 118 nM, respectively.
On to `CCc1c(F)ccc2cc(O)cc(-c3ncc4c(N5C[C@@H]6C[C@H](C5)[C@H](O)C6)nc(OC[C@@]56CCCN5C[C@@H](OC)C6)nc4c3F)c12` [Example 925, (1R,5R,6R)-3-(7-(8-ethyl-7-fluoro-3-hydroxynaphthalen-1-yl)-8-fluoro-2-(((2S,7aS)-2-methoxytetrahydro-1H-pyrrolizin-7a(5H)-yl)methoxy)pyrido[4,3-d]pyrimidin-4-yl)-3-azabicyclo[3.2.1]octan-6-ol], for which the IC50 in [1] amounted to 3 nM; in [2], 4 nM; in assay [3] it was 6 nM; in assay [4] it was 3 nM; in assay [5], 2 nM; in assay [6], 9 nM. The IC50 in assay [7] is > 10000 nM; in assay [8], 826 nM; in assay [9], 302 nM.

In general, IC50 refers to the concentration at which inhibition is half-maximal. Low values mean higher potency, high ones lower potency.
